Consider two compounds from article PMC10954696, “Development of a novel AAK1 inhibitor via Kinobeads-based screening” (Scientific Reports, 2024).

As usually defined, the IC50 is the point on the concentration scale where inhibition reaches its midpoint. By inhibition is commonly meant the relative decrease from the control value, in per cent. The low end stands for little suppression, the high end for strong suppression.

In experiment [1] the target is T1, CaMKKα/1 (Rattus norvegicus, UniProt P97756).
T1 construct: His6; made in house; host or cells: COS-7 cells
The experiment is described as follows: CaMKK activity assay: phosphorylation of GST-CaMKIα 1–293KE. Conditions: up to 2.6 µM, immunoblot anti-phospho-CaMKIα (pThr177), 30 °C, 10 min, Fig. 4c. It is filed as biochemical. As for the experimental part: (§1) Purified His-CaMKKα/1 or His-CaMKKβ/2 (40 ng) was incubated with 10 µg GST-CaMKIα 1–293KE in a solution (20 µL) containing 50 mM HEPES pH7.5, 10 mM Mg (CH3COO)2, 1 mM DTT, 2 mM CaCl2, 6 µM CaM, and 0.1 mM [γ-^32P]ATP at 30 °C for a reaction time of 20 min in the presence or absence of compounds. Then, 15 µL of the sample was spotted onto Whatman P81 paper, followed by scintillation counting of the paper as described above to measure the phosphate incorporation into GST-CaMKIα 1–293KE. Reactions were terminated by the addition of an equal volume of 2 × SDS-PAGE for the immunoblot assay at 30 °C for 10 min using 2.5 ng of CaMKKs in the solution described above containing 0.1 mM ATP, followed by immunoblot analyses using anti-phospho-CaMKIα at the Thr177 antibody.
Background: Immunoblotting shows a protein as a band on a membrane.

The target of experiment [2] is T2, CaMKKβ/2 (Rattus norvegicus, UniProt O88831).
T2 construct: His6; made in house; host or cells: COS-7 cells
The description is as above. Format: biochemical. Conditions: up to 2.6 µM, immunoblot anti-phospho-CaMKIα (pThr177), 30 °C, 10 min, Fig. 4c. On the procedure:
as §1

For experiment [3], the system named is HeLa cells overexpressing His-tagged AAK1 (1–863). Briefly: Early endosome formation (EEA1-positive vesicles), immunofluorescence microscopy. Conditions: 10 µM, 6 h, AAK1-transfected HeLa cells. It is filed as cell-based, human. On the procedure:
(§2) HeLa cells were cultured in 6-well plates containing Dulbecco’s modified Eagle’s medium supplemented with 10% fetal bovine serum at 37 °C in 5% CO2. The cells were transfected with 2 µg of an AAK1-expression plasmid (pME-His-AAK1 1–863) using polyethylenimine “MAX” according to the manufacturer’s protocol. After 42 h of culture, the cells were cultured with or without 10 µM TIM-098a for 6 h. HeLa cells grown on coverslips were fixed with 3.7% paraformaldehyde in PBS for 15 min and permeabilized with 0.1% Triton X-100 in PBS for 5 min at room temperature. Next, the cells were blocked with 4% bovine serum albumin (BSA) in PBS for 15 min and incubated with primary antibodies diluted in 4% BSA in PBS for 15 min. The cells were washed three times with PBS and incubated for 15 min with the appropriate secondary antibodies conjugated to Alexa fluorophores. After washing, the coverslips were mounted on microscope slides and viewed under an FV1000 confocal microscope (Olympus, Tokyo, Japan). Quantification of EEA1-positive vesicles was performed using ImageJ software. EEA1 fluorescence signals with areas greater than 430 nm^2 were counted as EEA1-positive vesicles using the particle analyzer function in ImageJ. To account for clustered EEA1 signals, the watershed segmentation method was applied in ImageJ before using the particle analyzer.

Another experiment deals with HeLa cells. The description is as above. Format: cell-based, human. Conditions: 10 µM, 6 h, untransfected HeLa cells. On the procedure: as §2
Experiment [4] deals with T3, His-tagged AAK1 catalytic domain (25–396) (Homo sapiens, UniProt Q2M2I8).
T3 construct: Purified His-AAK1 25–396 (200 ng); His10 (N); made in house; host or cells: COS-7 cells
T3 sequence (Q2M2I8 25-396): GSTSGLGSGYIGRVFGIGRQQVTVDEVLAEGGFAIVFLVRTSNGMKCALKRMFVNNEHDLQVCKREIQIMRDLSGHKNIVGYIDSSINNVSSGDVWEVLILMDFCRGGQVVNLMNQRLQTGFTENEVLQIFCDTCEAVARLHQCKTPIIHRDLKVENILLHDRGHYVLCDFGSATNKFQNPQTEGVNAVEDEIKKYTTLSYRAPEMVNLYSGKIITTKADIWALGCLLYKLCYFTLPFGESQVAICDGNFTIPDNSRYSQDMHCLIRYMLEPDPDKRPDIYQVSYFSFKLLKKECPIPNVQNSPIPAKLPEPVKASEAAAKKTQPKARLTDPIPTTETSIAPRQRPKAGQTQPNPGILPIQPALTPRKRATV
The experiment is described as follows: AAK1 activity assay: phosphorylation of GST-AP2µ2 (145–162) by His-AAK1 25–396 with [γ-32P]ATP. Format: biochemical. The conditions noted are these: for IC50: His-AAK1 25–396, GST-AP2µ2 (145–162), 100 µM [γ-32P]ATP, 30 °C, 20 min, read-out: IC50 against AAK1 activity. On the procedure: AAK1 phosphorylates AP2µ2 at Thr156; therefore, we set up an AAK1 activity assay using GST-fused AP2µ2 fragment (residues 145–162) as a substrate and anti-phospho-Thr156 antibody for detection of the substrate phosphorylation by AAK1.
(§3) Purified His-AAK1 25–396 (200 ng), His-GAK 2–370 (33 ng), His-BIKE 2–396 (87 ng), and His-STK16 2–306 (95 ng) were incubated with 10 µg GST-AP2µ2 (145–162)-His6 in a solution (20 µL) containing 50 mM HEPES pH7.5, 10 mM Mg(CH3COO)2, 1 mM DTT, and 0.1 mM [γ-^32P]ATP or ATP at 30 °C for the indicated time periods (His-GAK 2–370, 10 min; His-BIKE 2–396, 90 min; His-STK16 2–306, 20 min) in the presence or absence of various concentrations of inhibitors (5% DMSO). Then, 15 µL of the sample was spotted onto Whatman P81 paper and washed using 95% EtOH, followed by scintillation counting of the paper to measure the phosphate incorporation into GST-AP2µ2 (145–162)-His6. For immunoblot detection, reactions were terminated by the addition of an equal volume of 2 × SDS-PAGE buffer at various time points, followed by immunoblot analyses using an anti-phospho-AP2µ2 (AP2M1) at Thr156 antibody.

The next experiment addresses T4, His-STK16 2–306 (Mus musculus, UniProt O88697).
T4 construct: His-STK16 2–306 (95 ng); His6 (N); made in house; host or cells: COS-7 cells
The experiment is described as follows: NAKs activity assay: phosphorylation of GST-AP2µ2 (145–162). It is filed as biochemical. The conditions noted are these: His-STK16 2–306, 0.1 mM ATP, 30 °C, 20 min, duplicate experiments; read-out: IC50 against STK16 activity. As for the experimental part:
as §3
(§4) Supplemental Information S3
(§5) Effect of TIM-98a on NAKs’ activities. Purified His-GAK 2–370 (33 ng, closed triangles), His-BIKE 2–396 (87 ng, closed circles), and His-STK16 2–306 (95 ng, open circles) were incubated with 10 µg GST-AP2µ2 (145–162)-His6 in a solution (20 µL) containing 50 mM HEPES pH7.5, 10 mM Mg(CH3COO)2, 1 mM DTT, and 0.1 mM ATP at 30°C for the indicated time periods (His-GAK 2–370, 10 min; His-Bike 2–396, 90 min; His-STK16 2–306, 20 min) in the presence or absence (-) of various concentrations of TIM-098a. […] NAK’s activities are quantitated by densitometric scanning of the immunoreactive bands and expressed as a percentage of the average value in the absence of the compound (-). Results represent duplicate experiments. Molecular mass markers (kDa) are indicated in the left lanes of immunoblot panels.
(§6) (1 picture or pasted object on this page, not shown here)

The target in the next experiment is T5, His-GAK 2–370 (Mus musculus, UniProt Q99KY4).
T5 construct: His-GAK 2–370 (33 ng); His6 (N); made in house; host or cells: COS-7 cells
T5 sequence (Q99KY4 2-370): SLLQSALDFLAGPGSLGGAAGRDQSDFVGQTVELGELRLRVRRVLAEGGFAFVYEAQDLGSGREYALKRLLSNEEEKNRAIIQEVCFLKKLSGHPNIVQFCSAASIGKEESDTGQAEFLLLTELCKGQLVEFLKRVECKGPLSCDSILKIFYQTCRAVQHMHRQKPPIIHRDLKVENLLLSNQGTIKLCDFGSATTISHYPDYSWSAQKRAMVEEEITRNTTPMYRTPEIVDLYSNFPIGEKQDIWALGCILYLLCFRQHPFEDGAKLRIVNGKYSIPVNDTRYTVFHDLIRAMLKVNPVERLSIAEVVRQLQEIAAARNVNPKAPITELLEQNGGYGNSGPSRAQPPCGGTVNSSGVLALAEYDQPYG
The experiment is described as above. Format: biochemical. The conditions noted are these: His-GAK 2–370, 0.1 mM ATP, 30 °C, 10 min, duplicate experiments; read-out: IC50 against GAK activity. As for the experimental part: as §3, §4, §5, §6

The target of the next experiment is T6, His-BIKE 2–396 (Mus musculus, UniProt Q91Z96).
T6 construct: His-BIKE 2–396 (87 ng); His6 (N); made in house; host or cells: COS-7 cells
T6 sequence (Q91Z96 2-396): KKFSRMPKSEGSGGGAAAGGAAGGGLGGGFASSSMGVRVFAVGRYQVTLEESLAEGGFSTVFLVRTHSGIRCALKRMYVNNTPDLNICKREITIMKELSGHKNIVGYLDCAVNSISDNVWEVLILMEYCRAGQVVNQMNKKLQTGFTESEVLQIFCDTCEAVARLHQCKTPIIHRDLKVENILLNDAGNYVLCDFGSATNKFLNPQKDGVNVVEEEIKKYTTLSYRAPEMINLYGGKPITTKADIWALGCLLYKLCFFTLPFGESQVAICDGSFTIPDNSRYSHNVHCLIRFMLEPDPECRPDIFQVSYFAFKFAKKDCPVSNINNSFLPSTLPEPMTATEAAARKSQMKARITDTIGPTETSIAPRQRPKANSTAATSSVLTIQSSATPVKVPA
The description is as above. The conditions noted are these: His-BIKE 2–396, 0.1 mM ATP, 30 °C, 90 min, duplicate experiments; read-out: IC50 against BIKE activity. It is filed as biochemical. As for the experimental part:
as §3, §4, §5, §6

The target in experiment [5] is T7, AAK1 catalytic domain (25–396) in transfected COS-7 cells (Homo sapiens, UniProt Q2M2I8).
T7 construct: transfected with 0.2 µg of pME-His-AAK1 25–396; expressed in transfected cells; host or cells: COS-7 cells
T7 sequence (Q2M2I8 25-396): as the sequence (Q2M2I8 25-396) above
The experiment is described as follows: AAK1 activity in transfected COS-7 cells (pThr156 of GST-AP2µ2 145–162, immunoblot). Conditions: COS-7 cells expressing AAK1 25–396 and GST-AP2µ2 (145–162), 6 h treatment. Format: cell-based. On the procedure: To examine the effect of TIM-098a on AAK1 activity in cells, we set up an AAK1 activity assay in the cells as follows. Transfection of expression plasmids for the catalytic domain of AAK1(25–396) together with its artificial substrate (GST-AP2µ2 145–162) into COS-7 cells was followed by detection of phosphorylation of Thr156 via immunoblot analyses with anti-phospho-Thr156 antibody after 6 h-treatment with or without TIM-098a (Fig. 5). […] When we treated AAK1/GST-AP2µ2 (145–162) expressing COS-7 cells with various concentrations of TIM-098a, AAK1-catalyzed Thr156 phosphorylation of GST-AP2µ2 (145–162) was suppressed by TIM-098a treatment in a concentration-dependent manner (Fig. 5b), indicating the cell-membrane permeability and inhibitory effect of the inhibitor on AAK1 activity in the cells.
COS-7 cells and HeLa cells were obtained from American Type Culture Collection. COS-7 cells were cultured in 6-well plates or 10 cm dishes in Dulbecco’s modified Eagle’s medium supplemented with 10% fetal bovine serum at 37 °C in 5% CO2. COS-7 cells in 6-well plates were transfected with 0.2 µg of pME-His-AAK1 25–396 and 1.8 µg of pME-GST-AP2µ2 (145–162) expression plasmids using polyethylenimine “MAX” (Polysciences, Inc. Warrington, PA), according to the manufacturer’s protocol. […]

The target in the next experiment is T8, His-tagged AAK1 (Homo sapiens, UniProt Q2M2I8).
T8 construct: expressed in transfected cells; host or cells: COS-7 cells
The experiment is described as follows: Pull-down of His-tagged AAK1 from COS-7 cell extracts with TIM-063–immobilized sepharose (TIM-127-sepharose). Format: binding. The conditions noted are these: COS-7 extracts, elution with 100 µM TIM-063. As for the experimental part: COS-7 cells transfected with expression plasmids for His-tagged AAK1 were lysed with buffer A containing protease inhibitors as described above, and then cell lysates (200 µL) were incubated with either TIM-127-coupled sepharose or control sepharose (10 µL) for 30 min. After washing the resin thrice with buffer A (500 µL), samples were eluted from the sepharose resin by incubation with 20 µL of 100 µM TIM-063 in buffer A as previously described, followed by immunoblot analysis.

Experiment [6] has as its target T1, CaMKKα/1. Set-up: method as in PMID 32298102. The conditions noted are these: cited from earlier work.
The target of experiment [7] is T2, CaMKKβ/2. Also noted: method as in PMID 32298102. Conditions: cited from earlier work.

Entries after “also recorded” stand apart in the source; their conditions may differ.

T4 sequence (O88697 2-305 limits assumed): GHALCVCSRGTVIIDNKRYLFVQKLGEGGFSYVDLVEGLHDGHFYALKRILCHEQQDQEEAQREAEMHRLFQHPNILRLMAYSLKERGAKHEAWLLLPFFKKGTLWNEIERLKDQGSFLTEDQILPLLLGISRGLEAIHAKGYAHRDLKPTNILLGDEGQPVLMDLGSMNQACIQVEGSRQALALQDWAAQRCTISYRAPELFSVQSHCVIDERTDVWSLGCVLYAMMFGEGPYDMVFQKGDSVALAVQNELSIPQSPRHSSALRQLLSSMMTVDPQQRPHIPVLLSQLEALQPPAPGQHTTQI

Take `Nc1ccc2c(c1)nc1c3cc(O)cc4cccc(c(=O)n21)c43` [TIM-098a, 11-amino-2-hydroxy-7H-benzo[de]benzo[4,5]imidazo[2,1-a]isoquinolin-7-one]: the “effect on CaMKKα/1 activity” value at CaMKKα/1 [1] is recorded as “without any significant inhibitory effects; also recorded: without any inhibitory activity”. The “effect on CaMKKβ/2 activity” value on CaMKKβ/2 [2] is on record as “without any significant inhibitory effects; also recorded: without any inhibitory activity”. Moreover, the “number of early endosomes in AAK1-transfected cells” value in experiment [3] is reported as “recovered to the level of untransfected wild type cells”. For the same compound, the “early endosome formation in wild type cells” value in the experiment on HeLa cells was “not affected”. Also, the 50% inhibitory concentration (IC50) came to 240 nM in experiment [4]; 7150 nM at His-STK16 2–306; 1040 nM on His-GAK 2–370; 5990 nM on His-BIKE 2–396; 870 nM in [5]. In addition, the “AAK1 inhibitory potency relative to TIM-063” value in experiment [4] (higher potency than TIM-063) is given as ~ 35 fold. Also, in experiment [4] (versus GAK, BIKE, STK16), the “selectivity for AAK1: higher inhibitory potency than for other NAKs” value was 4–30 fold.

In the case of `O=c1c2cccc3c([N+](=O)[O-])c(O)cc(c32)c2nc3ccccc3n12` [TIM-063, 2-hydroxy-3-nitro-7H-benzo[de]benzo[4,5]imidazo[2,1-a]isoquinolin-7-one], the “interaction with AAK1 catalytic domain (His-AAK 25–396)” value on His-tagged AAK1 is reported as “strong interaction”. Moreover, on His-tagged AAK1, the “interaction with His-tagged AAK1 full length (1–863)” value is “weak binding”. For the same compound, the results for the IC50 (at CaMKKα/1 [6]; on CaMKKβ/2 [7]; in experiment [4]) were 630 nM, 960 nM and 8510 nM, respectively. The compound further registered an inhibition at 2.6 µM in experiment [4] (2.6 µM compound) of approximately 20%. The same compound gave an inhibition at 26 µM in experiment [4] (26 µM compound) of approximately 80%. Moreover, in [4] (lower on AAK1 than on CaMKK), the “inhibitory effect on AAK1 relative to that on CaMKK” value is on record as “~ tenfold”.
